Reference: PubChem BioAssay (NCI)
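In this assay, cells in 96-well plates receive the compound at five concentrations for 48 hours. Endpoints are linearly interpolated between the surrounding concentrations. Definition used: TGI = concentration required for complete inhibition of growth.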

What was measured:
Assay in all cases: NCI anticancer screen, dose series, 48 h
SNB-19 CNS = system: SNB-19 CNS
EKVX NSCLC = system: EKVX NSCLC
UO-31 renal = system: UO-31 renal
HOP-18 NSCLC = system: HOP-18 NSCLC
DMS 273 small cell lung = system: DMS 273 small cell lung
A549 NSCLC = system: A549 NSCLC
ACHN renal = system: ACHN renal
RXF 393 renal = system: RXF 393 renal
HCT-15 colon = system: HCT-15 colon
LOX IMVI melanoma = system: LOX IMVI melanoma
KM20L2 colon = system: KM20L2 colon
SK-MEL-28 melanoma = system: SK-MEL-28 melanoma
SNB-78 CNS = system: SNB-78 CNS
XF 498 CNS = system: XF 498 CNS
M14 melanoma = system: M14 melanoma
RXF-631 renal = system: RXF-631 renal
SK-MEL-2 melanoma = system: SK-MEL-2 melanoma
786-0 renal = system: 786-0 renal
OVCAR-4 ovarian = system: OVCAR-4 ovarian
TK-10 renal = system: TK-10 renal
U251 CNS = system: U251 CNS
K-562 leukemia = system: K-562 leukemia
IGROV1 ovarian = system: IGROV1 ovarian
DLD-1 colon = system: DLD-1 colon
MALME-3M melanoma = system: MALME-3M melanoma
RPMI-8226 leukemia = system: RPMI-8226 leukemia
HOP-92 NSCLC = system: HOP-92 NSCLC
NCI-H226 lung = system: NCI-H226 lung
SF-539 CNS = system: SF-539 CNS
M19-MEL melanoma = system: M19-MEL melanoma
OVCAR-8 ovarian = system: OVCAR-8 ovarian
SF-295 CNS = system: SF-295 CNS
HOP-62 NSCLC = system: HOP-62 NSCLC
KM12 colon = system: KM12 colon
HL-60(TB) leukemia = system: HL-60(TB) leukemia
SN12C renal = system: SN12C renal
UACC-62 melanoma = system: UACC-62 melanoma
CAKI-1 renal = system: CAKI-1 renal
LXFL 529 NSCLC = system: LXFL 529 NSCLC
HCT-116 colon = system: HCT-116 colon
SK-MEL-5 melanoma = system: SK-MEL-5 melanoma
OVCAR-5 ovarian = system: OVCAR-5 ovarian
HCC-2998 colon = system: HCC-2998 colon
MOLT-4 leukemia = system: MOLT-4 leukemia
SW-620 colon = system: SW-620 colon
SF-268 CNS = system: SF-268 CNS
DMS 114 small cell lung = system: DMS 114 small cell lung
UACC-257 melanoma = system: UACC-257 melanoma
SNB-75 CNS = system: SNB-75 CNS
OVCAR-3 ovarian = system: OVCAR-3 ovarian
NCI-H460 lung = system: NCI-H460 lung
A498 renal = system: A498 renal
HT29 colon = system: HT29 colon
NCI-H23 lung = system: NCI-H23 lung
COLO 205 colon = system: COLO 205 colon
SK-OV-3 ovarian = system: SK-OV-3 ovarian
NCI-H522 lung = system: NCI-H522 lung
SR leukemia = system: SR leukemia
CCRF-CEM leukemia = system: CCRF-CEM leukemia

Compound: CCCCC(C(=O)C(=O)Nc1ccc(C)cc1C)C(=O)C(C)C (configuration not stated)
- TGI (SNB-19 CNS): > 100 µM
- TGI (EKVX NSCLC): > 100 µM
- TGI (UO-31 renal): > 100 µM
- TGI (HOP-18 NSCLC): > 100 µM
- TGI (DMS 273 small cell lung): > 100 µM
- TGI (A549 NSCLC): > 100 µM
- TGI (ACHN renal): > 100 µM
- TGI (RXF 393 renal): > 100 µM
- TGI (HCT-15 colon): > 100 µM
- TGI (LOX IMVI melanoma): > 100 µM
- TGI (KM20L2 colon): > 100 µM
- TGI (SK-MEL-28 melanoma): > 100 µM
- TGI (SNB-78 CNS): > 100 µM
- TGI (XF 498 CNS): > 100 µM
- TGI (M14 melanoma): > 100 µM
- TGI (RXF-631 renal): > 100 µM
- TGI (SK-MEL-2 melanoma): > 100 µM
- TGI (786-0 renal): > 100 µM
- TGI (OVCAR-4 ovarian): > 100 µM
- TGI (TK-10 renal): > 100 µM
- TGI (U251 CNS): > 100 µM
- TGI (K-562 leukemia): > 100 µM
- TGI (IGROV1 ovarian): > 100 µM
- TGI (DLD-1 colon): > 100 µM
- TGI (MALME-3M melanoma): > 100 µM
- TGI (RPMI-8226 leukemia): > 100 µM
- TGI (HOP-92 NSCLC): > 100 µM
- TGI (NCI-H226 lung): > 100 µM
- TGI (SF-539 CNS): > 100 µM
- TGI (M19-MEL melanoma): > 100 µM
- TGI (OVCAR-8 ovarian): > 100 µM
- TGI (SF-295 CNS): > 100 µM
- TGI (HOP-62 NSCLC): > 100 µM
- TGI (KM12 colon): > 100 µM
- TGI (HL-60(TB) leukemia): > 100 µM
- TGI (SN12C renal): > 100 µM
- TGI (UACC-62 melanoma): > 100 µM
- TGI (CAKI-1 renal): > 100 µM
- TGI (LXFL 529 NSCLC): > 100 µM
- TGI (HCT-116 colon): > 100 µM
- TGI (SK-MEL-5 melanoma): > 100 µM
- TGI (OVCAR-5 ovarian): > 100 µM
- TGI (HCC-2998 colon): > 100 µM
- TGI (MOLT-4 leukemia): > 100 µM
- TGI (SW-620 colon): > 100 µM
- TGI (SF-268 CNS): > 100 µM
- TGI (DMS 114 small cell lung): > 100 µM
- TGI (UACC-257 melanoma): > 100 µM
- TGI (SNB-75 CNS): > 100 µM
- TGI (OVCAR-3 ovarian): > 100 µM
- TGI (NCI-H460 lung): > 100 µM
- TGI (A498 renal): > 100 µM
- TGI (HT29 colon): > 100 µM
- TGI (NCI-H23 lung): > 100 µM

Compound: O=c1oc2cc(O)ccc2c2[nH]c3cc(O)ccc3c12
- TGI (SNB-19 CNS): > 100 µM
- TGI (COLO 205 colon): 74.9 µM
- TGI (EKVX NSCLC): 90.1 µM
- TGI (UO-31 renal): 97.5 µM
- TGI (SK-OV-3 ovarian): 63.1 µM
- TGI (HOP-18 NSCLC): > 100 µM
- TGI (DMS 273 small cell lung): 88.6 µM
- TGI (A549 NSCLC): > 100 µM
- TGI (ACHN renal): 62.5 µM
- TGI (RXF 393 renal): 47.5 µM
- TGI (HCT-15 colon): 81.8 µM
- TGI (LOX IMVI melanoma): 33.8 µM
- TGI (KM20L2 colon): > 100 µM
- TGI (SK-MEL-28 melanoma): > 100 µM
- TGI (SNB-78 CNS): > 100 µM
- TGI (XF 498 CNS): 73.6 µM
- TGI (M14 melanoma): > 100 µM
- TGI (NCI-H522 lung): 32.9 µM
- TGI (SK-MEL-2 melanoma): 50.2 µM
- TGI (786-0 renal): > 100 µM
- TGI (OVCAR-4 ovarian): 99.6 µM
- TGI (TK-10 renal): > 100 µM
- TGI (U251 CNS): > 100 µM
- TGI (K-562 leukemia): > 100 µM
- TGI (IGROV1 ovarian): 57.9 µM
- TGI (DLD-1 colon): 74.8 µM
- TGI (MALME-3M melanoma): > 100 µM
- TGI (RPMI-8226 leukemia): > 100 µM
- TGI (HOP-92 NSCLC): 95.4 µM
- TGI (NCI-H226 lung): 78 µM
- TGI (SF-539 CNS): 49.9 µM
- TGI (M19-MEL melanoma): 98.7 µM
- TGI (OVCAR-8 ovarian): 78.7 µM
- TGI (SR leukemia): > 100 µM
- TGI (SF-295 CNS): > 100 µM
- TGI (HOP-62 NSCLC): 59.6 µM
- TGI (KM12 colon): 53.1 µM
- TGI (HL-60(TB) leukemia): > 100 µM
- TGI (SN12C renal): > 100 µM
- TGI (UACC-62 melanoma): 31.7 µM
- TGI (CCRF-CEM leukemia): > 100 µM
- TGI (LXFL 529 NSCLC): > 100 µM
- TGI (HCT-116 colon): 31.5 µM
- TGI (HCC-2998 colon): 57 µM
- TGI (MOLT-4 leukemia): > 100 µM
- TGI (SW-620 colon): > 100 µM
- TGI (SF-268 CNS): 64.8 µM
- TGI (DMS 114 small cell lung): 53.8 µM
- TGI (UACC-257 melanoma): > 100 µM
- TGI (SNB-75 CNS): 46.2 µM
- TGI (OVCAR-3 ovarian): 56.5 µM
- TGI (NCI-H460 lung): 96.4 µM
- TGI (A498 renal): > 100 µM
- TGI (HT29 colon): > 100 µM
- TGI (NCI-H23 lung): 51.5 µM

Compound: CC(=O)Nc1ccc(-c2nnc(SCC(=O)Nc3cccc(C)c3)o2)cc1
- TGI (COLO 205 colon): 28 µM
- TGI (UO-31 renal): 26.3 µM
- TGI (SK-OV-3 ovarian): 81.5 µM
- TGI (HOP-18 NSCLC): 29.7 µM
- TGI (DMS 273 small cell lung): 23 µM
- TGI (A549 NSCLC): 68.6 µM
- TGI (ACHN renal): 22.5 µM
- TGI (RXF 393 renal): 25.9 µM
- TGI (HCT-15 colon): 21.6 µM
- TGI (LOX IMVI melanoma): 15.6 µM
- TGI (KM20L2 colon): 22 µM
- TGI (SK-MEL-28 melanoma): 28.6 µM
- TGI (SNB-78 CNS): 31.1 µM
- TGI (M14 melanoma): 25.6 µM
- TGI (NCI-H522 lung): 16.7 µM
- TGI (SK-MEL-2 melanoma): 28.6 µM
- TGI (786-0 renal): 26.4 µM
- TGI (OVCAR-4 ovarian): 29.8 µM
- TGI (TK-10 renal): 29.2 µM
- TGI (U251 CNS): 26.3 µM
- TGI (K-562 leukemia): > 100 µM
- TGI (IGROV1 ovarian): 24.7 µM
- TGI (DLD-1 colon): 23.1 µM
- TGI (MALME-3M melanoma): 27.2 µM
- TGI (RPMI-8226 leukemia): 67 µM
- TGI (HOP-92 NSCLC): 26.2 µM
- TGI (NCI-H226 lung): 30.8 µM
- TGI (SF-539 CNS): 27.8 µM
- TGI (M19-MEL melanoma): 24.9 µM
- TGI (OVCAR-8 ovarian): 38.9 µM
- TGI (SR leukemia): > 100 µM
- TGI (SF-295 CNS): 22.9 µM
- TGI (HOP-62 NSCLC): 73.2 µM
- TGI (KM12 colon): 22.6 µM
- TGI (HL-60(TB) leukemia): > 100 µM
- TGI (SN12C renal): 28.5 µM
- TGI (UACC-62 melanoma): 20.9 µM
- TGI (CAKI-1 renal): 30.4 µM
- TGI (CCRF-CEM leukemia): > 100 µM
- TGI (LXFL 529 NSCLC): 22.8 µM
- TGI (HCT-116 colon): 24.1 µM
- TGI (SK-MEL-5 melanoma): 23.1 µM
- TGI (OVCAR-5 ovarian): 26.7 µM
- TGI (MOLT-4 leukemia): > 100 µM
- TGI (SW-620 colon): 25.4 µM
- TGI (SF-268 CNS): > 100 µM
- TGI (DMS 114 small cell lung): 6.94 µM
- TGI (UACC-257 melanoma): 24.9 µM
- TGI (SNB-75 CNS): 45.8 µM
- TGI (OVCAR-3 ovarian): 24.2 µM
- TGI (NCI-H460 lung): 28.6 µM
- TGI (HT29 colon): 25.4 µM
- TGI (NCI-H23 lung): 20.4 µM
